Data set [1] deals with RIP2 kinase (Homo sapiens (Human), UniProt O43353). Briefly: Binding affinity assay (Kd). How it is done:
For most assays, kinase-tagged T7 phage strains were prepared in an E. coli host derived from the BL21 strain. E. coli were grown to log-phase and infected with T7 phage and incubated with shaking at 32° C. until lysis. The lysates were centrifuged and filtered to remove cell debris. The remaining kinases were produced in HEK-293 cells and subsequently tagged with DNA for qPCR detection. Streptavidin coated magnetic beads were treated with biotinylated small molecule ligands for 30 minutes at room temperature to generate affinity resins for kinase assays. The liganded beads were blocked with excess biotin and washed with blocking buffer (SeaBlock (Pierce), 1% BSA, 0.05% Tween 20, 1 mM DTT) to remove unbound ligand and to reduce non-specific binding. Binding reactions were assembled by combining kinases, liganded affinity beads, and test compounds in 1× binding buffer (20% SeaBlock, 0.17×PBS, 0.05% Tween 20, 6 mM DTT). Test compounds were prepared as 111× stocks in 100% DMSO. Kds were determined using an 11-point 3-fold compound dilution series with three DMSO control points. All compounds for Kd measurements are distributed by acoustic transfer (non-contact dispensing) in 100% DMSO. The compounds were then diluted directly into the assays such that the final concentration of DMSO was 0.9%. All reactions performed in polypropylene 384-well plate. Each was a final volume of 0.02 ml. The assay plates were incubated at room temperature with shaking for 1 hour and the affinity beads were washed with wash buffer (1×PBS, 0.05% Tween 20). The beads were then re-suspended in elution buffer (1×PBS, 0.05% Tween 20, 0.5 μM nonbiotinylated affinity ligand) and incubated at room temperature with shaking for 30 minutes. The kinase concentration in the eluates was measured by qPCR.
An 11-point 3-fold serial dilution of each test compound was prepared in 100% DMSO at 100× final test concentration and subsequently diluted to 1× in the assay (final DMSO concentration=1%). Most Kds were determined using a compound top concentration=30,000 nM. If the initial Kd determined was <0.5 nM (the lowest concentration tested), the measurement was repeated with a serial dilution starting at a lower top concentration.
Binding constants (Kds) were calculated with a standard dose-response curve using the Hill equation: […]
The Hill Slope was set to −1.
Curves were fitted using a non-linear least square fit with the Levenberg-Marquardt algorithm.

The nature of data set [2]: Thermodynamic solubility test. In kind it is physicochemical. Particulars: thermodynamic from solid; FaSSIF pH 6.5, thermodynamic. How it is done: • a. Add assay buffer into compound powder to make 4 mg/mL solution. • b. Sample tubes are shaken for 1 hour (1000 rpm), then equilibrated over night at room temperature. • c. Samples are centrifuged (10 min-12000 rpm) to precipitate un-dissolved particles. • d. Supernatants are transferred to new tubes. • e. Concentrations of the supernatants after centrifugation are determined by LCMSMS detection.

Data set [3] can be described thus: Caco-2 permeability test. In kind it is in vitro ADME. Particulars: human, Caco-2, pH 7.4. How it is done:
(§1) • 1. Prewarm HBSS Buffer in 37° C. water bath • 2. Take compounds from −20° C., sonicate for a few minutes (no less than 1 minute) • 3. Solution preparation
(§2) For A-to-B direction: • HBSS buffer with 0.3% DMSO and 5 μM LY: add 150 μL DMSO and 50 μL LY (5 mM) into 50 ml HBSS buffer (pH7.4). • HBSS buffer with 0.1% DMSO and 5 μM LY: add 50 μL DMSO and 50 μL LY (5 mM) into 50 mL HBSS buffer (pH7.4).
(§3) For B-to-A direction: • HBSS buffer with 0.3% DMSO: add 150 μL DMSO into 50 ml HBSS buffer (pH7.4) • HBSS buffer with 0.1% DMSO: add 50 μL DMSO into 50 ml HBSS buffer (pH7.4).
(§4) Receiver Solution Buffer:
(§5) Prepare HBSS buffer with 0.4% DMSO: add 200 μL DMSO into 50 ml HBSS buffer (pH7.4).
(§6) For B-to-A direction: • Prepare HBSS buffer with 0.4% DMSO and 5 uM LY: add 200 μL DMSO and 50 μL LY (5 mM) into 50 ml HBSS buffer (pH7.4).
(§7) Take cell culture plate out of incubator, wash the cell monolayers with HBSS buffer, and then measure TEER values at Rm temperature. • 5. Centrifuge the compound solution (from step 3) at 4000 rpm for 5 min before loading to donor chambers. • 6. Add solution based on the volumes listed in the following table (make sure to take extra 100 uL of donor sample for T0 as Backup).
(§8) • 7. To determine LY concentration in the apical chamber, take 100 μL sample from apical chambers into an opaque plate for LYT0. • 8. Prewarm apical and basolateral plates at 37° C. for about 5 min, then begin transport by placing the apical plate onto basolateral plate. • 9. Keep the plates in incubator at 37° C. for 90 min • 10. Prepare 20× solution
(§9) • 11. Separate the apical plate from the basolateral plate after 90-min incubation. • 12. Take 100 μL samples from basolateral plate to an opaque plate as LYT90. • 13. Measure LY concentrations for LYT0 and LYT90 by Fluorometer (at excitation of 485 nm/emission of 535 nm). • 14. Sample preparation for LC-MS/MS: Donor or receiver samples are diluted by 0.4% DMSO HBSS, then mix with ACN with IS (Osalmid or Imipramine)
(Caco-2 monolayers are a common model of the intestinal barrier.)

Data set [4] has as its system Caco-2. Description: Caco-2 permeability test. Format: in vitro ADME. Particulars: Caco-2. How it is done:
as §1, §2, §3, §4, §5, §6, §7, §8, §9

A short description of data set [5]: Metabolic stability test, HLM. Particulars: human, liver microsomes. In kind it is in vitro ADME. How it is done:
(§10) • 1. Buffers: • Buffer A: 1.0 L of 0.1 M monobasic Potassium Phosphate buffer containing 1.0 mM EDTA • Buffer B: 1.0 L of 0.1 M Dibasic Potassium Phosphate buffer containing 1.0 mM EDTA • Buffer C: 0.1 M Potassium Phosphate buffer, 1.0 mM EDTA, pH 7.4 by titrating 700 mL of buffer B with buffer A while monitoring with the pH meter. • 2. Reference compounds (Ketanserin) and test compounds spiking solution: • 500 μM spiking solution: add 10 μL of 10 mM DMSO stock solution into 190 μL ACN. • 1.5 μM spiking solution in microsomes (0.75 mg/mL): add 1.5 μL of 500 μM spiking solution and 18.75 μL of 20 mg/mL liver microsomes into 479.75 μL of Buffer C on ice. • 3. Prepare NADPH stock solution (6 mM) by dissolving NADPH into buffer C. • 4. Dispense 30 μL of 1.5 μM spiking solution containing 0.75 mg/mL microsomes solution to the assay plates designated for different time points (0-, 5-, 15-, 30-, 45-min) on ice. • 5. For 0-min time point, add 135 μL of ACN containing IS to the wells of 0-min plate and then add 15 μL of NADPH stock solution (6 mM). • 6. Pre-incubate all other plates at 37° C. for 5 minutes. • 7. Add 15 μL of NADPH stock solution (6 mM) to the plates to start the reaction and timing. • 8. At 5-min, 15-min, 30-min, and 45-min, add 135 μL of ACN containing IS to the wells of corresponding plates, respectively, to stop the reaction. • 9. After quenching, shake the plates at the vibrator (IKA, MTS 2/4) for 10 min (600 rpm/min) and then centrifuge at 5594 g for 15 min (ThermoMultifuge×3R). • 10. Transfer 50 μL of the supernatant from each well into a 96-well sample plate containing 50 μL of ultra pure water (Millipore, ZMQS50F01) for LC/MS analysis.
(Microsomes from liver hold many membrane-bound enzymes, among them those of drug oxidation.)

A short description of data set [6]: Metabolic stability test, RLM. In kind it is in vitro ADME. Particulars: rat, liver microsomes. How it is done:
as §10

Data set [7] is described as follows: Metabolic stability test, DLM. Format: in vitro ADME. Particulars: dog, liver microsomes. How it is done:
as §10

From patent publication US20240190904A1, “Heteroaryl compounds as inhibitors of RIP2 kinase, composition and application thereof” (Accro Bioscience (HK) Limited, priority 2021, published 2024) come the findings set out here.

≈ marks a conversion by molar mass, not a printed value.

Chain of RIP2 kinase (O43353 whole entry): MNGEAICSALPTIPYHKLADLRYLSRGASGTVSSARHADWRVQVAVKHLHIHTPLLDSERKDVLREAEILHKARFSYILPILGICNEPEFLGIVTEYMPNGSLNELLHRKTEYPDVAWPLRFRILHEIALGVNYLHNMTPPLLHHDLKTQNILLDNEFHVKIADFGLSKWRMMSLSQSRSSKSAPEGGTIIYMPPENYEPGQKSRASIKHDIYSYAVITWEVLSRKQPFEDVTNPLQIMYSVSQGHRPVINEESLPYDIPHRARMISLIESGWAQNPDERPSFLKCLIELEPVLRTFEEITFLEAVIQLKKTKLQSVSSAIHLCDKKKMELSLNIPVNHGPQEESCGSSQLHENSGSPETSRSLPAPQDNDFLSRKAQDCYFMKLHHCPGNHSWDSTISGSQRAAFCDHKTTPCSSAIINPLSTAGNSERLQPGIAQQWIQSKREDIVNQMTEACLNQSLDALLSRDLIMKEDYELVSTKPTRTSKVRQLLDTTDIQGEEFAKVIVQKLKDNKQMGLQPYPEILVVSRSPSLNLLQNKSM

One may read the Kd as the equilibrium constant for the complex coming apart. Read a high Kd as lower affinity. Broadly, the solubility is how much of the substance goes into solution per volume. Broadly, the Papp A→B is the apparent permeability from the apical to the basolateral side of a cell layer. High values mean ready permeation, low ones poor permeation. In general, Papp B→A refers to the apparent permeability from the basolateral to the apical side of a cell layer. As to `CP(C)(=O)c1cc2c(Nc3ccc4scnc4c3)ccnc2cc1-c1cnn(C2CCNCC2)c1` [A13], the Kd in data set [1] worked out at 1.4 nM. In addition, in data set [2], the solubility worked out at 4.33 mM (≈ 2170 µg/mL). In data set [3] (A-B), the Papp A→B at 90 min was under 0.14 ×10⁻⁶ cm/s. Moreover, the apparent permeability from basolateral to apical (Papp B→A) at 90 min in data set [3] (B-A) was 0.27 ×10⁻⁶ cm/s. Further, in data set [3] (efflux ratio, read-out: Caco-2 Permeability B-A/A-B), the efflux ratio at 90 min is over 1.93. For the same compound, in data set [4], the “permeability (in words)” value is given as “low”. Further, the CLint scaled at 1 μM in data set [5] (pH 7.4, read-out: Cl (mL/min/kg) HLM) was determined as 0.69 mL/min/kg; in data set [6] (pH 7.4, read-out: Cl (mL/min/kg) RLM), 31.6 mL/min/kg; in data set [7] (pH 7.4, read-out: Cl (mL/min/kg) DLM) it was 17.4 mL/min/kg. Further, the half-life at 1 μM in data set [5] (pH 7.4, read-out: T1/2 (min) HLM) came to 2520 min; in data set [6] (pH 7.4, read-out: T1/2 (min) RLM) it was 78.7 min; in data set [7] (pH 7.4, read-out: T1/2 (min) DLM), 198 min.
